The record followed here is ChEMBL document CHEMBL4017541, “Membrane-Active Hydantoin Derivatives as Antibiotic Agents” (J Med Chem, 2017).

≈ marks a conversion by molar mass, not a printed value. Calls of active or inactive are those of the source. The calls are words filed in the database; no cut-off is given here.

In test [1] the test system is Staphylococcus aureus. The test can be described thus: Antimicrobial activity against methicillin resistant Staphylococcus aureus ATCC 33591 after 16 hrs. The conditions noted are these: ATCC 33591, 16 h. The format is functional.
Test [2] has as its system Staphylococcus epidermidis. The test can be described thus: Antimicrobial activity against methicillin resistant Staphylococcus epidermidis RP62A after 16 hrs. The format is functional.
Test [3] has as its system Enterococcus faecalis. Put plainly: Antimicrobial activity against vancomycin resistant Enterococcus faecalis ATCC 700802 after 16 hrs. As to conditions: ATCC 700802, 16 h. The format is functional.
For test [4], the system named is Escherichia coli. Put plainly: Antimicrobial activity against Escherichia coli ATCC 25922 after 16 hrs. The format is functional. The conditions noted are these: ATCC 25922, 16 h.
The subject of test [5] is Pseudomonas aeruginosa. Put plainly: Antimicrobial activity against Pseudomonas aeruginosa ATCC 27853 after 16 hrs. The format is functional. The conditions noted are these: ATCC 27853, 16 h.
For test [6], the system named is Klebsiella pneumoniae. The test can be described thus: Antimicrobial activity against Klebsiella pneumoniae ATCC 13383 after 16 hrs. Type of test: functional. As to conditions: ATCC 13383, 16 h.
The nature of test [7]: Retention time of compound by HPLC analysis.
For test [8], the system named is HCT-116. Put plainly: Cytotoxicity against human HCT116 cells. Type of test: cell-based.
The nature of test [9]: Selectivity index, ratio of HC50 for mouse RBC to MIC for methicillin resistance Staphylococcus aureus ATCC 33591.
The subject of test [10] is Staphylococcus aureus. The test can be described thus: Induction of membrane disruption in methicillin resistance Staphylococcus aureus ATCC 33591 at 5 ug/ml after 2 hrs by propidium iodide/4', 6'-diamidino-2-phenylindole dihydrochloride dye based fluorescence microscopy. The format is functional.
In test [11] the test system is Escherichia coli. The test can be described thus: Induction of membrane disruption in Escherichia coli ATCC 25922 at 5 ug/ml after 2 hrs by propidium iodide/4', 6'-diamidino-2-phenylindole dihydrochloride dye based fluorescence microscopy. Type of test: functional.
Test [12] has as its system Staphylococcus aureus. The test can be described thus: Bactericidal activity against methicillin resistance Staphylococcus aureus ATCC 33591 at 25 ug/ml after 10 mins by time kill analysis. The format is functional.
Test [13] deals with Staphylococcus aureus. The test can be described thus: Bactericidal activity against methicillin resistance Staphylococcus aureus ATCC 33591 at 2 ug/ml after 60 mins by time kill analysis. The format is functional.
The test system of test [14] is Escherichia coli. The test can be described thus: Bactericidal activity against Escherichia coli ATCC 25922 at 25 to 50 ug/ml after 30 mins by time kill analysis. Type of test: functional.
For test [15], the system named is Escherichia coli. Put plainly: Bactericidal activity against Escherichia coli ATCC 25922 at 4 ug/ml after 60 mins by time kill analysis. Type of test: functional.
For test [16], the system named is Staphylococcus aureus. Put plainly: Antibacterial activity against methicillin resistance Staphylococcus aureus ATCC 33591 after 14 serial passage at 0.5 times MIC after 16 hrs. The format is functional.
The subject of test [17] is Staphylococcus aureus. Put plainly: Antibacterial activity against methicillin resistance Staphylococcus aureus ATCC 33591 infected in Wistar rat assessed as reduction in bacterial load in bronchoalveolar lavage of lungs at 10 mg/kg, iv treated 24 hrs post infection measured after 3 days relative to control. Type of test: functional. Further details: scale not given: the % may be the effect or the level left.

The test system of test [18] is Staphylococcus aureus. The test can be described thus: Antibacterial activity against methicillin resistance Staphylococcus aureus ATCC 33591 infected in Wistar rat assessed as reduction in bacterial load in bronchoalveolar lavage of lungs at 10 mg/kg, iv treated 24 hrs post infection measured after 5 days relative to control. The format is functional. Details: scale not given: the % may be the effect or the level left.

Test [19] has as its system Staphylococcus aureus. Put plainly: Antibacterial activity against methicillin resistant Staphylococcus aureus ATCC 33591 infected in Wistar rat assessed as reduction in lung inflammation at 10 mg/kg, iv treated 24 hrs post infection measured after 5 days by hematoxylin/ eosin staining based microscopic analysis. The format is functional, organism-based.
For test [20], the system named is Staphylococcus aureus. The test can be described thus: Antibacterial activity against methicillin resistant Staphylococcus aureus ATCC 33591 infected in Wistar rat assessed as reduction in lung inflammation at 10 mg/kg, iv treated 24 hrs post infection measured after 3 days by hematoxylin/ eosin staining based microscopic analysis. Type of test: functional, organism-based.

The MIC is the lowest concentration that inhibits growth of the organism. What is called IC50 is the point on the concentration scale where inhibition reaches its midpoint. On to `CCCCCCCCCCCC(=O)N[C@@H](CCCCN)CN1CC(=O)N(c2cccc(Cl)c2)C1=O`, for which the minimal inhibitory concentration (MIC) is 0.5 µg/mL (≈ 0.986 µM) in [1]; 0.5 µg/mL (≈ 0.986 µM) in test [2]; 0.5 µg/mL (≈ 0.986 µM) in [3]; 1 µg/mL (≈ 1.97 µM) in [4]; 1 µg/mL (≈ 1.97 µM) in test [5]; 0.78 µg/mL (≈ 1.54 µM) in test [6]. This compound also registered a Retention time in [7] of 28.4 min. This compound also returned a half-inhibitory concentration (IC50) in [8] of 100 µg/mL (≈ 197 µM). Moreover, in [9], the Selectivity Index stood at 190. Besides, the result in test [10], in [11], in [12], in test [13], in [14] and in test [15] was Active. Besides, the outcome in [16], in [19] and in test [20] was Active. The Activity in test [17] is 70%; in [18] it was 96%.
